*1 amine or outer side, *2 acyl side, *3 side chain or, on linkers, in order; H or OH if unused. Where a SMILES comes first, the peptide text is derived from it. Bridges are numbered along the chain shown (N, C = ends). [ ]: non-standard residue; d: D form. The star is where a group is joined. Leu(3R-OH,Nα-propionyl) = CCC(=O)N[C@H](C(=O)*)[C@H](O)C(C)C; X1 = CC(C)[C@@H](O[*:3])[C@H](N[*:1])C(=O)[*:2]; Leu(3R-OH) = CC(C)[C@@H](O)[C@H](N)C(=O)O; X2 = CCCC(=O)N[C@H](C(=O)*)[C@H](O)C(C)C; NMeT = CN[C@H](C(=O)O)[C@@H](C)O; dPhLac = O=C(O)[C@H](O)Cc1ccccc1; NMeA = CN[C@@H](C)C(=O)O; NMeDha = C=C(NC)C(=O)O
Assays:
[1] = molecular target: T1, wild type Gαq in HEK Gαq/Gα11-null cells (Homo sapiens, UniProt P50148); assay: DMR (dynamic mass redistribution) inhibition of carbachol (CCh 100 µM) response in Gαq-transfected HEK293 Gαq/Gα11-null cells; format: cell-based; details: compounds added 1 h before, 37 °C, mean ± s.e.m. of n independent replicates in technical triplicates (FR n=11, FR-Core n=4, FR-5 n=4), read-out: pIC50 (Gαq inhibition, DMR) (converted)
T1 construct: expressed in transfected cells; host or cells: CRISPR/Cas9-edited HEK293 Gαq/Gα11-null cells
T1 sequence (P50148 1-359): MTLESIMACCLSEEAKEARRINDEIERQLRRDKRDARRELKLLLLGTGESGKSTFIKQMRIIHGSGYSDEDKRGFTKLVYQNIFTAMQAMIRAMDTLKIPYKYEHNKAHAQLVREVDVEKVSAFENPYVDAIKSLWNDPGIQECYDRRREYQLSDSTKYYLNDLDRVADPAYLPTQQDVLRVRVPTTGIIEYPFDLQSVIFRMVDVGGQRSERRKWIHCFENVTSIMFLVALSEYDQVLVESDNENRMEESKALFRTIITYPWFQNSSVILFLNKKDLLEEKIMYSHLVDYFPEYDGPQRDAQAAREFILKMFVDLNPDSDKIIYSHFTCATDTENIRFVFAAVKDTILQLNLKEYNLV
Protocol: Label-free dynamic mass redistribution (DMR) assay
Cell culture materials were purchased from Invitrogen (Carlsbad, CA, USA). Generation of genetically engineered HEK293 cells using CRISPR/Cas9 technology to knockout the subunits of Gαq and Gα11 (Gαq/Gα11-null cells) is described elsewhere. Cells were maintained in Dulbecco’s modified Eagle’s medium (DMEM) supplemented with 10% (v/v) fetal calf serum (FCS, PAN biotech, Germany), penicillin (100 units/mL), and streptomycin (0.1 mg/mL), and kept in a humidified atmosphere with 5% CO2 at 37 °C. All cell lines were screened by PCR on a monthly basis for mycoplasma contamination and were tested negative. DMR measurements were performed analogous to prior studies[39],[40] using the Epic DMR reader (Corning, NY, USA) together with the Cybi-SELMA semi-automated electronic pipetting system (Analytik Jena AG, Jena, Germany). 24 h after transfection with the G protein αq subunit, HEK293 cells were counted and seeded on 384-well fibronectin-coated biosensor plates at a density of 17,000 cells per well. On the next day, cells were washed twice with Hanks’ buffered salt solution containing 20 mM HEPES (HBSS + HEPES) and incubated for 1 h at 37 °C in the EPIC reader. 1, 2, 3 or 7 in HBSS + HEPES were added 1 h before the measurement. The sensor plate was scanned to record a baseline optical signature (no change in basal DMR), and after the addition of compounds, DMR alterations were monitored for 3000 s at 37 °C. All data were analyzed using GraphPad Prism 8.0.0 (GraphPad Inc, La Jolla, CA, USA). Quantification of DMR signals was performed by calculation of the maximum responses. […]
Concentration-effect curves in Fig. 4a–c were normalized by setting each experimental maximal effect as 100% response. All data are expressed as mean + or ± standard error of the mean (s.e.m.) of at least three independent experiments performed in technical triplicates. […]
Supplementary Table 6: Quantification of FR, FR-Core and FR-5 inhibitory activities at wild type Gαq in HEK Gαq/Gα11-null cells. […]

[2] = molecular target: T2, Gαq proteins (human platelet membrane preparations) (Homo sapiens, UniProt P50148); assay: Competition binding vs [³H]PSB-15900 at human platelet membrane preparations; details: vs 5 nM [³H]PSB-15900; 50 µg protein; 50 mM Tris pH 7.4; 37 °C, 1 h; read-out: pIC50 (competition binding) (converted)
T2 construct: human platelet membrane preparations that natively express Gαq proteins; from tissue; host or cells: human platelet membrane preparation
T2 sequence (P50148 1-359): T1 sequence (P50148 1-359)
Protocol: Competition binding assay
Competition binding assays of 1 and 2 were conducted versus the radiolabeled FR derivative [³H]PSB-15900 utilizing human platelet membrane preparations that natively express Gαq proteins. The experiments were performed in 50 mM Tris, pH=7.4, in a final assay volume of 200 µl. Each assay tube contained 50 µl [³H]PSB-15900 solution in the buffer (final concentration: 5 nM), 50 µl of human platelet membrane preparation in buffer (50 µg of protein), 95 µl of buffer, and 5 µl of 1 or 2 solution, respectively, in varying concentrations dissolved in DMSO. Non-specific-binding was determined in the presence of 5 µM FR dissolved in DMSO. Incubation was performed at 37 °C for 1 h with gentle shaking and was started by the addition of the membrane preparation. The incubation was terminated by rapid filtration through GF/C glass fiber filters using a Brandel 24-well-harvester. Filters were dried, punched out, transferred to scintillation vials, and incubated for at least 6 h in scintillation cocktail (2.5 ml ProSafe FC+®, Meridian Biotechnologies Ltd, UK) prior to measurement in a liquid scintillation counter at an efficiency of 53%. Data were evaluated using GraphPad Prism 7 (GraphPad Inc., San Diego, CA, USA), and IC50 values were determined by the One site – Fit logIC50-equation.

Riptortus pedestris = assay: Oral feeding toxicity, survival rate of first instar stinkbug nymphs; format: in vivo; details: 40 µM, nine days
Protocol: Feeding and effect determination of 1 and 2 on insects
A small cotton pad soaked with 500 µl of 1 or 2-containing water was served to first instar nymphs of the stinkbug R. pedestris for oral intake. For feeding, 1 and 2 were each dissolved in 100% MeOH and diluted with water to concentrations of 0.2, 0.04, and 0.02 µg/µl. Distilled water containing 2% MeOH was used as control. Each experiment included 20 stinkbug individuals. Insects were reared in a moisture chamber at 25 °C under a long day regimen (16 h light, 8 h dark), supplied with dried soybean seeds. The 1 or 2-containing water was exchanged every 3 d, and the survival rate was monitored every day at the same time for 9 d.
Please select the one below that is the best fit for your research. If you are not sure, read the appropriate sections before making your selection. […]
Sample size Sample size: 7 groups of each 20 animals were treated with control (1 group) and two different compounds at 3 different concentrations (6 groups). […] Sample size (size of group) was determined based on standard laboratory practice, and the available amount of the compounds for the experiments. […]
We require information from authors about some types of materials, experimental systems and methods used in many studies. […] If you are not sure if a list item applies to your research, read the appropriate section before selecting a response. […]

| Structure (SMILES) | IC50 [1] [µM] | IC50 [2] [µM] | lethality in words, lower concentration (Riptortus pedestris) |
| --- | --- | --- | --- |
| C=C1C(=O)N[C@@H](C)C(=O)N(C)[C@@H](C)C(=O)N[C@@H]([C@H](OC(=O)[C@@H](NC(=O)CCC)[C@H](O)C(C)C)C(C)C)C(=O)N(C)[C@@H]([C@@H](C)OC)C(=O)O[C@H](C(C)C)[C@H](NC(C)=O)C(=O)O[C@H](Cc2ccccc2)C(=O)N1C [FR-5] (Ac-[X1][dPhLac][NMeDha]A[NMeA][X1](X2)[NMeT](Me); ester 1-C) | 3.16 |  |  |
| C=C1C(=O)N[C@@H](C)C(=O)N(C)[C@@H](C)C(=O)N[C@@H]([C@H](O)C(C)C)C(=O)N(C)[C@@H]([C@@H](C)OC)C(=O)O[C@H](C(C)C)[C@H](NC(C)=O)C(=O)O[C@H](Cc2ccccc2)C(=O)N1C [FR-Core] (Ac-[X1][dPhLac][NMeDha]A[NMeA][Leu(3R-OH)][NMeT](Me); ester 1-C) | 7.41 | 2.75 |  |
| C=C1C(=O)N[C@@H](C)C(=O)N(C)[C@@H](C)C(=O)N[C@@H]([C@H](OC(=O)[C@@H](NC(=O)CC)[C@H](O)C(C)C)C(C)C)C(=O)N(C)[C@@H]([C@@H](C)OC)C(=O)O[C@H](C(C)C)[C@H](NC(C)=O)C(=O)O[C@H](Cc2ccccc2)C(=O)N1C [FR] (Ac-[X1][dPhLac][NMeDha]A[NMeA][X1](Leu(3R-OH,Nα-propionyl))[NMeT](Me); ester 1-C) | 0.457 | 0.0132 | lethal effects |
